Measurements taken from patent publication US20200093744A1, “POLYMER CONSTRUCTS FOR CONTROLLED RELEASE OF GUEST AGENTS” (CASE WESTERN RESERVE UNIVERSITY, priority 2017, published 2020).

Experiment: Thermal stability by TGA and comparative UV-Vis before and after heating up to 220° C.
Assay type: physicochemical
Experimental: Thermal transitions of polymer films were obtained using DSC (TA instruments Q100) at a heating rate of 10° C./min over a temperature range of about −80 to 200° C. The thermal properties of the polymers were measured by thermogravimetric analysis (TGA) on a TA Instruments, […]. The samples were heated up to 220° C. at a heating rate of 15° C./min under a dry nitrogen atmosphere (flow rate: 70 mL/min) on a TA Instruments 2950 thermogravimetric analyzer. X-ray diffraction (XRD) measurements were conducted via a Rigaku diffractometer in transmission mode with Cu Kα X-rays (λ=0.154 nm) operating at 40 kV and 40 mA. The experiment was carried out at 25° C. with a scan speed of 0.5°/min over a scan range of 5° to 40°.
The thermal property of the polymer-guest system was also investigated by the TGA to ensure system stability during the high temperature layer multiplying coextrusion process. […] A viscosity-match temperature of layer multiplying co-extrusion was determined by a melt flow indexer (MFI) at a low shear rate as shown in FIG. 5. A 60/40 feed ratio of PEO100K/PEO200K in layer B was obtained with the processing temperature of 200° C. selected based on material rheological compatibility. The ABAB-type layer multiplication process was conducted accordingly with PE as the protective surface layer and the technique described herein used to form the multilayer film.

SMILES: CN(C)c1ccc(N=Nc2ccc(S(=O)(=O)[O-])cc2)cc1.[Na+] [MO, methyl orange]
- conjugation structure of MO after heating (comparative UV-Vis): remained intact
